US10059655B2, “Lipids and lipid compositions for the delivery of active agents” (priority 2013, dated 2018)

How the values were obtained:
Format in all cases: in vivo
mEPO = experiment: Mouse EPO ELISA after IV injection of encapsulated mEPO mRNA; settings: 0.2 mpk, ob/ob mice, @ 24 h
Protocol: A rat anti-mouse Erythropoietin antibody is coated on 384-well white microtiter plates overnight, then blocked for assay. Then, plasma samples are diluted in a casein-based sample diluent and incubated on the plate with buffer controls and mouse EPO standards. The plate is then washed to remove unbound material. A biotinylated rat anti-mouse Erythropoietin antibody is then added to the plate to detect mouse EPO bound by the capture antibody. The plate is washed again and a streptavidin-conjugated horseradish peroxidase reagent is incubated on the plate. A third wash step is performed and a chemiluminescent reagent is added to the plate and immediately read by a capable plate reader using all wavelengths and a 50 millisecond integration time. Unknown samples are interpolated off the mouse EPO standard curve.

RSV F protein = experiment: RSV immunogenicity: F-specific IgG titers after IM vaccination with liposome-formulated self-replicating RNA; settings: IM days 0 and 21, BALB/c mice, two weeks after two immunizations
hFIX = experiment: Human Factor IX ELISA after IV injection of encapsulated hFIX mRNA; settings: 0.12 mpk, C57 mice, @ 24 h
Protocol: An sheep anti-human Factor IX antibody (Cat# FIX-EIA-C) from Enzyme Research Laboratories is coated on 384-well white microtiter plates overnight at a concentration of 5 ug/ml, then blocked for assay using KPL blocker (Cat#50-82-00). Then, plasma samples are diluted in a casein-based sample diluent and incubated on the plate with biological controls and a standard curve created from recombinant protein (Cat#HCIX-0040). The plate is then washed to remove unbound material. A biotinylated sheep anti-human Factor IX antibody (Cat# FIX-EIA-D) from Enzyme Research Laboratories is then added to the plate at 0.6 ug/ml to detect human Factor IX protein bound by the capture antibody. The plate is washed again and a streptavidin-conjugated horseradish peroxidase reagent (Cat#21140) diluted 1:1250, is incubated on the plate. A third wash step is performed and chemiluminescent reagents (Cat#1859678 & Cat#18596789) are combined and added to the plate and immediately read by a capable plate reader using all wavelengths and a 50 millisecond integration time. Unknown samples are interpolated off the human recombinant Factor IX standard curve.

SMILES | Expression of protein following IV injection of encapsulated mRNA: mEPO (mEPO) | Immunogenicity (2wp2; log10 IgG titers) (RSV F protein; 0.1 ng replicon RNA) | Immunogenicity (2wp2; log10 IgG titers) (RSV F protein; 1 ng replicon RNA) | Expression of protein following IV injection of encapsulated mRNA: hFIX (hFIX)
CCCCC/C=C\C/C=C\CCCCCCCC(=O)OCC(COC(=O)CCCCCCC/C=C\C/C=C\CCCCC)COC(=O)C1(C)CCN(C)C1 (stereo not shown) [Example 1, (9Z,9′Z,12Z,12′Z)-2-(((1,3-dimethylpyrrolidine-3-carbonyl)oxy)methyl)propane-1,3-diyl bis(octadeca-9,12-dienoate)] | 22.5 ng/mL | 3.99 log10 IgG titers | 4.08 log10 IgG titers | 147.7 ng/mL
CCCCC/C=C\C/C=C\CCCCCCCC(=O)OCC(COC(=O)CCC(OCCCCCCCC)OCCCCCCCC)COC(=O)OCCCN(CC)CC (stereo not shown) [Example 13, (9Z,12Z)-3-((4,4-bis(octyloxy)butanoyl)oxy)-2-((((3-(diethylamino)propoxy)carbonyl)oxy)methyl)propyl octadeca-9,12-dienoate] |  |  |  | 292.7 ng/mL
CCCCC/C=C\C/C=C\CCCCCCCC(=O)OCC(COC(=O)CCC(OCCCCCCCC)OCCCCCCCC)COC(=O)OCC1CCCN(CC)C1 (stereo not shown) [Example 15, (9Z,12Z)-3-((4,4-bis(octyloxy)butanoyl)oxy)-2-(((((1-ethylpiperidin-3-yl)methoxy)carbonyl)oxy)methyl)propyl octadeca-9,12-dienoate] |  | 4.45 log10 IgG titers | 4.63 log10 IgG titers | 
